For data set [1], the target named is T1, PAG (Rattus norvegicus, UniProt P13264).
T1 sequence (P13264 55-674): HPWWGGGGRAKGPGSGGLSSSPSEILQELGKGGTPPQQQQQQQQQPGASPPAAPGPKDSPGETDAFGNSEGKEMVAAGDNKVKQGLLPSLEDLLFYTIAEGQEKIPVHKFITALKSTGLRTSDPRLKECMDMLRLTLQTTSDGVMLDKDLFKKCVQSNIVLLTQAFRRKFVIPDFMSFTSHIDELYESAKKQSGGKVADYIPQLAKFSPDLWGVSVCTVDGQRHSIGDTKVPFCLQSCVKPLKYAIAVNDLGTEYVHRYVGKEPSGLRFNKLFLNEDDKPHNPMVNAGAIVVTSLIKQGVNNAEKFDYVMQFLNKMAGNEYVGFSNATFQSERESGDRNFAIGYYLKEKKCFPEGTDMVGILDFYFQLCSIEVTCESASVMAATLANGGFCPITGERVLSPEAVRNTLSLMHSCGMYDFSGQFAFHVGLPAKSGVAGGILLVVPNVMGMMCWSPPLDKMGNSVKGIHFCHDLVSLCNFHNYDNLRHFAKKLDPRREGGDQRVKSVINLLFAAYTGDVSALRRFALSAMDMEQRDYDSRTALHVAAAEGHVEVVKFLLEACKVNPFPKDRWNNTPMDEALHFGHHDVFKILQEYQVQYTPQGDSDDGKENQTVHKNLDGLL
The data set is described as follows: In vitro PAG inhibition by drugs used in HE therapy. The format is biochemical. The settings on record: for effect on PAG activity in vitro: 10 mM. The method, then: (§1) PAG inhibition analysis by different thiourea derivatives (THDP) was assayed in vitro, using the method of Heini for glutaminase activity determination, adapted to a microtiter procedure. This assay is based on the use of o-phthaldialdehyde/mercaptoethanol as a reagent for estimating ammonia released from glutamine. Briefly, 25 µl samples were added to 35 µl of a mixture of 150 mM potassium phosphate, 171 mM glutamine, 1 mM ammonium chloride, pH 8.0 and then incubated at 37°C for 45 min. The reaction was stopped by adding 10 µl 7% trichloroacetic acid, kept on ice for 15 min and centrifuged 5 min at 1000 × g. Aliquots of 5 µl/well were then mixed with 150 µl o-phthalaldehyde/mercaptoethanol reagent (14.4 ml 200 mM potassium phosphate, pH 7.4, 0.8 ml 72 mM mercaptoethanol in ethanol and 0.8 ml 186 mM o-phthaldialdehyde in ethanol). The samples were kept at room temperature in the dark and absorbance measured at 410 nm with a UV-Visible spectrophotometer (BioRad) after 45 min.
PAG activity inhibition was analyzed using 10 mM concentration. PAG activity in vitro was no affected by neomycin, lactitol and lactulose, rather, an increased activity was observed.

Data set [2] has as its system glutaminase activity in Caco2 cells. The data set is described as follows: Glutaminase inhibition by metformin in Caco2 cells. The format is cell-based.
Description: 6-Diazo-5-oxo-L-norleucine (DON) (0–100 µM) was used as positive control.
Another data set deals with Caco-2 cells. The data set is described as follows: Cytotoxicity assay in Caco-2 cells after 24 h exposure. The settings on record: Caco-2, 24 h exposure. The format is cell-based. The procedure:
Regression analysis of dose-response curves and calculation of IC50 were done according to standard procedure using appropriated software.
Acute toxicity test in animals is typically the first step in the evaluation of the effects of a chemical compound, and its primary purpose is to provide information on potential health hazards that may result from a short-term exposure. […] In the present work, cytotoxicity of a 24 h-exposure to selected inhibitors was evaluated in Caco-2 cells using the MTT method developed by Mosmann and modified by Denizot and Lang.

The test system of data set [3] is glutaminase activity (PAG) in Caco-2 cells. The data set is described as follows: Inhibition assay in cell culture (glutamate produced from glutamine, HPLC). The format is cell-based. The text has this: Results are shown on Figure 4.
The subject of data set [4] is C57BL/6 mice. The data set is described as follows: Acute toxicity, oral administration to mice with free access to food and water. The format is in vivo. Conditions: for Deaths before 6 h / Deaths before 12 h / Deaths before 24 h: N=4. The procedure:
(§2) Lethal dose was determined by oral administration of the compounds to C57BL/6 mice. Thirty mice were supplied by the Centre of Production and Experimental animal of Espartinas, University of Seville, Spain. The animals were housed ten per cage, and maintained at constant room temperature (22°C ±2°C), with artificial light-dark cycle of 12 h and a relative humidity of 65%−70%, and free access to food and water during 2 weeks for acclimation. All animal procedures were performed with approval from the Sevilla University Animal Ethics Committees, under the guidelines of the directive 86/609/CEE of the European Union. Two assays in different conditions were performed. […] They were sacrificed 24 h latter and a macroscopic analysis of the tissues (lungs, heart, liver, stomach and intestine) was performed. […] In this case, mice were sacrificed 24 or 72 h latter and the same macroscopic analysis was performed.
(§3) The undiluted compound has low systemic toxicity but a marked local necrotizing and inflammatory effect when it is administered orally. […] There were few fluctuations in histopathological values but no changes appear to be drug-related or of significance. […] Therefore, we repeat the assay using feed animals.

Data set [5] deals with T2, glutaminase obtained from both kidney and intestine mitochondria (K-PAG) (Rattus norvegicus, UniProt P13264).
T2 construct: an enriched preparation of glutaminase obtained from both kidney and intestine mitochondria; from tissue; host or cells: rat kidney and intestine mitochondria, solubilised with 1% Triton X-100
T2 sequence (P13264 55-674): T1 sequence (P13264 55-674)
The data set is described as follows: In vitro inhibition screening of glutaminase activity (Heini method, ammonia released from glutamine). The format is biochemical. The procedure:
as §1, with “Aliquots of 5 µl/well were then mixed with 150 µl o-phthalaldehyde/mercaptoethanol reagent (14.4 ml 200 mM potassium phosphate, pH 7.4, 0.8 ml 72 mM mercaptoethanol in ethanol and 0.8 ml 186 mM o-phthaldialdehyde in ethanol).” left out
(§4) K-PAG activity was assayed, in presence and absence of the inhibitor; using isolated mitochondria from rat intestine and kidney, solubilized with 1% Triton X-100 as a source of glutaminase. Enzymatic activity was measured using a two-step assay as described by Lund. Protein concentration was determined following Bradford method using serum albumin as standard.
The first group analysed in this work is integrated by a small molecule compounds library derived from thiourea. […]

Data set [6] deals with C57BL/6 mice. The data set is described as follows: Acute toxicity, oral administration to 12 h fasted mice. The format is in vivo. The settings on record: for Deaths before 6 h / Deaths before 12 h: oral, N=3. The procedure: as §2, §3
Data set [7] relates to swine K-PAG (from kidney). The data set is described as follows: In vitro optimised kinetic assay with increasing inhibitor concentrations. The format is biochemical. The method, then: as §4
First, increasing concentration of inhibitors (ranging from 1 µM to 10 mM) were added to standard and optimized enzymatic assay conditions with 99 mmol/l glutamine, 150 mmol/l phosphate and 100 µg K-PAG (Figure 1).

Data set [8] relates to PAG. The data set is described as follows: PAG kinetic parameters in absence and presence of THDP-17 (double reciprocal plot). The format is biochemical, swine. The procedure: as §4
Figure 3 THDP17 inhibition kinetics. A lineal double reciprocal plot (1/v against 1/[Gln]) in absence (0) and presence (10 µM) of the inhibitor is shown. […] All experiments were performed in triplicates; p>0.05.

[9] abbreviates: fed mice, oral, 50 mg/Kg in DMSO.
[10] abbreviates: fed mice, oral, 300 mg/Kg in DMSO.

Entries after “also recorded” stand apart in the source; their conditions may differ. Marks after values point to notes of the source that are not given here.

On to `OC[C@H]1O[C@@H](O[C@@H]2[C@@H](CO)OC(O)(CO)[C@H]2O)[C@H](O)[C@@H](O)[C@H]1O` (mixture of isomers) [lactulose], for which the “effect on PAG activity in vitro” value on PAG [1] is “no affected”.

Turning to `OC[C@@H](O)[C@@H](O[C@@H]1O[C@H](CO)[C@H](O)[C@H](O)[C@H]1O)[C@H](O)[C@@H](O)CO` [lactitol], the “effect on PAG activity in vitro” value at PAG [1] is “no affected”.

In general, inhibition refers to how much of the control response was suppressed. Consider `CN(C)C(=N)N=C(N)N` [metformin], for which the inhibition kinetics entry against PAG [1] (Dixon plot) is on record as “competitive inhibition kinetics”. Moreover, on PAG [1] (read-out: PAG inhibition), the inhibition at 10000 µM worked out at 17.5% and the inhibition at 100000 µM came out at 68%. Further, the “inhibition rates at higher concentrations” value in [2] (Caco2, 50, 100 and 200 mM) was “did not yield higher inhibition rates”. In data set [2] (Homo sapiens, Caco-2, 72 h), this molecule returned an inhibition at 20000 µM of 24%.

As a reminder, the IC50 is the concentration needed to halve the response being measured. Low readings indicate inhibition by little substance, high ones a need for much substance. The term Vmax denotes the rate approached at saturating substrate. As to “N-(3-methyl-3-butenyl)-N′-phenylthiourea [THDP-17]”, in the data set with Caco-2 cells, the “cytotoxicity (cell viability)” value was “did not show cytotoxicity”. Moreover, the “concentration at which PAG inhibition in cell cultures is effective” value in data set [3] (Caco-2) is “higher than 5 µM”. Moreover, the “PAG inhibition in cell cultures” value in data set [3] (Caco-2, 20 µM) is on record as 18±2.1%; in data set [3] (Caco-2, 100 µM), 46±3.4%. The “deaths during the experimental period” value with C57BL/6 mice [4] (fed mice) was “no deaths were observed”. In the data set with C57BL/6 mice [4] (fed mice sacrificed at 24 and 72 h, less pronounced than in fasted group), the macroscopic organs analysis entry was “gastrointestinal ulcers and duodenum bleeding”. In addition, the “Deaths before 6 h” value in the data set with C57BL/6 mice [4] (setting [9]) is given as 0; in the data set with C57BL/6 mice [4] (fed mice, oral, 300 mg/Kg in DMSO, animal without water) it was 1 ^*; in the data set on C57BL/6 mice [6] (50 mg/Kg in DMSO) it was 1; with C57BL/6 mice [6] (300 mg/Kg in DMSO), 1; in the data set with C57BL/6 mice [6] (2000 mg/Kg in DMSO) it was 2. Further, the “Deaths before 12 h” value turned out to be 0 with C57BL/6 mice [4] (setting [9]); 0 with C57BL/6 mice [4] (setting [10]); 1 in the data set with C57BL/6 mice [6] (50 mg/Kg in DMSO); 1 with C57BL/6 mice [6] (300 mg/Kg in DMSO); 1 in the data set with C57BL/6 mice [6] (2000 mg/Kg in DMSO). Moreover, the “Deaths before 24 h” value in the data set with C57BL/6 mice [4] (setting [9]) and with C57BL/6 mice [4] (setting [10]) was 0 in each case. The “toxicity in vivo (conclusion)” value with C57BL/6 mice [4] (mice, oral) is reported as “no toxic in vivo”. The “inhibition of intestinal glutaminase activity” value in data set [5] (THDP-17 10 µM) is given as 57.4±6.7%. Also, in [5] (thiourea library screening), the “inhibition of K-PAG activity (screening result)” value was “could inhibit K-PAG activity”. In the data set on C57BL/6 mice [6] (also seen with DMSO vehicle alone), the “macroscopic findings in the gastrointestinal tract” value was “gastrointestinal ulcers and duodenum bleeding”. For the same molecule, the “histopathological damages in lungs, heart or liver” value in the data set on C57BL/6 mice [6] (compared to DMSO alone) was “No essential or histopathological damages”. This molecule also yielded an IC50 in data set [7] (99 mmol/l glutamine, 150 mmol/l phosphate, 100 µg K-PAG) of 3.9 ± 0.1 µM. The “extent of PAG inhibition at low milimolar concentrations” value in data set [7] (low milimolar concentrations, plateau) is recorded as “inhibits PAG activity partially”. In the data set with PAG [8] (double reciprocal plot), the inhibition model result is “not-pure-uncompetitive inhibitor; also recorded: uncompetitive inhibition”. Further, the Vmax with PAG [8] (with THDP-17 10 µM) was found to be 384.62 µmol/min. Besides, in the data set with PAG [8] (with THDP-17 10 µM, without inhibitor 0.67 mmol min^-1), the Vmax-ap is 0.38 mmol/min.

Regarding neomycin, the “effect on PAG activity in vitro” value at PAG [1] is reported as “no affected”.
